Laboratory results reported in paper PMC12271471, “Direct synthesis of mycophenolic acid aryl esters with antioxidant and antiproliferative properties” (Scientific Reports, 2025).

How the values were obtained:
[1] = tested on: PBMCs; experiment: VPD450 proliferation test (flow cytometry) on PBMCs; type: cell-based, human; settings: for EC50: Homo sapiens, PBMC, PBMCs stimulated with anti-CD3/anti-CD28 beads, 72 h, mean ± SD; for SI selectivity index PBMCs (IC50/EC50): ratio between IC50 (XTT) and EC50 (VPD450) on PBMCs
Procedure: These values indicate the concentration of any compound at which proliferation of PBMCs (healthy cells), and T-Jurkat cells (T-cell leukemia), is inhibited by 50% compared to the control. Cells were treated with the compounds for 72 h (PBMCs) or 48 h (T-Jurkat), followed by a […] VPD450 test. The results are presented in ESI Fig. S3 as proliferation curves concerning concentration.
ESI Figure 3. Concentration-dependent change in proliferation under the treatment of ester derivatives of MPA. (A) VPD450-labelled PBMCs were cultured in the presence of different concentrations (100; 50; 25; 10; 1; 0.1, and 0.01 μM) of MPA, MMF, and ester derivatives, and stimulated with magnetic beads coated with anti-CD3 and anti-CD28 antibodies for 72 hours. (B) VPD450-labelled T-Jurkat cells were cultured in the presence of different concentrations (100; 10; 1; 0.1 and 0.01 μM) of MPA and ester derivatives for 48 hours. The plots were separated based on the type of ester derivative (P or MP). Cell proliferation was analyzed using flow cytometry. The results are expressed […]
(1 picture or pasted object on this page, not shown here) […]
inhibited cell viability by more than 50%. Each experiment was conducted in triplicate, and the final […]
VPD450 dye-based in vitro cell proliferation test
PBMCs and T-Jurkat cells were washed twice with warm PBS (37°C), re-suspended in fresh PBS at a final concentration of 10-30∙10^6 cells/ml, and labelled with 1 µl of VPD450 (BD Biosciences) at 37°C for 15 minutes, with vortexing every 5 minutes to ensure uniform staining. Subsequently, cells were washed with PBS, then with the complete medium (X-VIVO20 for PBMCs and RPMI-1640 for T-Jurkat cells), next re-suspended in fresh complete medium and seeded into 96-well plates at a concentration of 1∙10^6 cells per well. PBMCs were additionally stimulated with magnetic beads coated with anti-CD3 and anti-CD28 antibodies (Invitrogen) at a 2:1 cell-to-bead ratio. To the experimental wells, 100 µl of the MPA derivatives were added to achieve final concentrations of 50, 25, 10, 5, 1, 0.1, and 0.01 µM. In parallel, control wells containing stained but unstimulated cells and stained, stimulated cells were prepared at the same concentration. Cell proliferation was analyzed using an LSRFortessa flow cytometer (BD Biosciences) and Kaluza C Flow Cytometry Analysis Software (Beckman Coulter). […]
Statistical analysis was conducted using GraphPad Prism 9 (GraphPad Software Inc).
Differences between MMF, MPA and its new derivatives were assessed using a two-tailed unpaired Student’s t-test, with statistical significance defined as p < 0.05. EC50 and IC50 values were determined by fitting data to a four-parameter non-linear regression model in GraphPad Prism 9. Statistical significance was evaluated using the t-test.

[2] = tested on: PBMCs; experiment: XTT cytotoxicity test on PBMCs; type: cell-based; settings: Homo sapiens, PBMC, 72 h (ESI: 96 h), viability, mean ± SD, read-out: Relative IC50 PBMCs (XTT)
Procedure: Table 3 presents the IC50 values obtained from the XTT test on PBMCs and the T-Jurkat cell line, using MPA and MMF as standards. These values indicate the concentration of each compound required to reduce the viability of PBMCs (healthy cells) and T-Jurkat cells (T-cell leukemia) by 50% compared to the control. Cells were treated with compounds for 72 h (PBMCs) or 48 h (T-Jurkat), followed by a colorimetric XTT test. The results are illustrated in ESI Fig. S2 as a viability curve in relation to concentration.
Biological evaluation — PBMC and T-Jurkat cells […]
Human peripheral blood mononuclear cells (PBMCs) were isolated from buffy coats provided by anonymous, healthy volunteers with an average age of 35±4 years during routine transfusion procedure. These samples were received by the Authors from the Regional Centre for Blood Donation and Treatment in Gdańsk (Poland). […]
solely for PBMCs isolation. PBMCs were suspended in a complete X-VIVO medium, consisting of X-VIVO20, 10% heat-inactivated human AB serum, penicillin (100 U/ml), and streptomycin ([…]).
MPA derivatives preparation
To achieve the desired concentrations of the tested compounds, the substances were first dissolved in DMSO to reach a final concentration of 0.01 M. The solutions were then diluted in the appropriate additive-free medium (RPMI-1640 for T-Jurkat cells and X-VIVO20 for PBMCs) to obtain […]
Peripheral blood mononuclear cells were isolated by gradient centrifugation, as described previously. Buffy coats were diluted with phosphate-buffered saline (PBS, pH = 7.4, ThermoFisher Scientific) in a 1:1 ratio, layered at Ficoll-Paque™ PLUS (VWR International), and centrifuged at 800 × g for 20 minutes. The PBMC layer was collected and washed twice with PBS (1st wash: 600 × g for 10 minutes; 2nd wash: 600 × g for 5 minutes). Cell amount and viability were assessed using the Bio-Rad TC20™ automated cell counter combined with trypan blue staining.
XTT dye-based in vitro cytotoxicity test
The cytotoxic effects of mycophenolic acid (MPA) derivatives were assessed using an in vitro XTT-based assay (Roche). PBMCs in complete X-VIVO20 medium and T-Jurkat cells in complete RPMI-1640 medium were seeded into 96-well plates at a concentration of 5∙10^5 cells/50 µl per well. 50 µl of tested compounds were added to the experimental wells to achieve final concentrations of 50, 25, 10, 5, 1, 0.1, and 0.01 µM. The background control consisted of the medium without cells, while untreated cells served as the positive control. After incubating for 48 hours for T-Jurkat cells and 96 hours for PBMCs in a humidified atmosphere with 5% CO2 at 37°C, 50 µl of freshly prepared XTT reagent was added to all wells according to the manufacturer's instructions. The plates were then incubated for an additional 24 hours under the same conditions. The conversion of the water-soluble yellow XTT tetrazolium salt to orange formazan was quantified by measuring the optical density (OD) at 450 nm using an Agilent BioTek Epoch Microplate Spectrophotometer (Agilent Technologies), with a reference wavelength of 690 nm. The results were expressed as IC50 values for compounds that […]
inhibited cell viability by more than 50%. […]
PBMCs were suspended in a 15 mL centrifuge tube at a concentration of 10-30 × 10⁶ cells in 1 mL of PBS, then, 2 μL of 1 mM VPD 450 dye solution was added, incubated for 15 min at 37°C, washed with a 9-fold volume of warm PBS and centrifuged at 400 x g for 5 min. Then, the cells were suspended in 10 mL of X-VIVO medium with 10% FBS and centrifuged again at 400 x g for 5 min. After suspending the cells in the complete medium, the staining level was checked using flow cytometry. The cells thus obtained were stimulated with anti-CD3/anti-CD28 antibodies as described previously (see VPD450 dye-based in vitro cell proliferation test). To perform the GMP test, a proper amount of GMP was added to each well to reach its final concentration of 50 μM, and then incubated for 72 hours. Proliferative […]

Row | Structure (SMILES) | EC50 [1] [µM] | SI selectivity index PBMCs (IC50/EC50) [1] | IC50 [2] [µM]
1 | COc1cc(C=O)cc(OC)c1OC(=O)CC/C(C)=C/Cc1c(O)c2c(c(C)c1OC)COC2=O [MP3] | 13.742 ± 0.005 | 0.770 | 10.59 ± 0.04
2 | COc1cccc(OC)c1OC(=O)CC/C(C)=C/Cc1c(O)c2c(c(C)c1OC)COC2=O [MP2] | 5.395 ± 0.006 | 4.174 | 22.52 ± 0.039
3 | COC(=O)/C=C/c1ccccc1OC(=O)CC/C(C)=C/Cc1c(O)c2c(c(C)c1OC)COC2=O [P4] | 4.865 ± 0.004 | 5.321 | 25.887 ± 0.017
4 | COc1c(C)c2c(c(O)c1C/C=C(\C)CCC(=O)Oc1cc(C)ccc1C(C)C)C(=O)OC2 [P2] | 1.417 ± 0.003 | 11.538 | 16.349 ± 0.01
5 | COc1c(C)c2c(c(O)c1C/C=C(\C)CCC(=O)O)C(=O)OC2 [MPA, Mycophenolic acid] | 1.154 ± 0.006 | 16.232 | 18.73 ± 0.03
6 | COc1ccccc1OC(=O)CC/C(C)=C/Cc1c(O)c2c(c(C)c1OC)COC2=O [MP1] | 1.106 ± 0.004 | 13.365 | 14.78 ± 0.016
7 | C/C=C/c1ccc(OC(=O)CC/C(C)=C/Cc2c(O)c3c(c(C)c2OC)COC3=O)c(OC)c1 [MP9] | 2.356 ± 0.003 | 8.978 | 21.153 ± 0.015
8 | COc1cc(C=O)ccc1OC(=O)CC/C(C)=C/Cc1c(O)c2c(c(C)c1OC)COC2=O [MP4] | 2.9 ± 0.005 | 8.098 | 23.484 ± 0.015
9 | COc1c(C)c2c(c(O)c1C/C=C(\C)CCC(=O)OCCN1CCOCC1)C(=O)OC2 [MMF, mycophenolate mofetil, reference compound] | 1.037 ± 0.006 | 16.020 | 16.61 ± 0.041
10 | COc1c(C)c2c(c(O)c1C/C=C(\C)CCC(=O)Oc1ccc3c(c1)OCO3)C(=O)OC2 [P1] | 1.152 ± 0.004 | 108.919 | 125.48 ± 0.025
11 | C=CCc1ccc(OC(=O)CC/C(C)=C/Cc2c(O)c3c(c(C)c2OC)COC3=O)c(OC)c1 [MP8] | 1.154 ± 0.003 | 15.409 | 17.782 ± 0.011
12 | COc1c(C)c2c(c(O)c1C/C=C(\C)CCC(=O)Oc1ccc(CCC(C)=O)cc1)C(=O)OC2 [P7] | 1.047 ± 0.006 | 48.036 | 50.294 ± 0.019
13 | COC(=O)/C=C/c1ccc(OC(=O)CC/C(C)=C/Cc2c(O)c3c(c(C)c2OC)COC3=O)c(OC)c1 [MP7] | 7.734 ± 0.007 | 3.935 | 30.43 ± 0.044
14 | COc1c(C)c2c(c(O)c1C/C=C(\C)CCC(=O)Oc1ccc(C=O)cc1)C(=O)OC2 [P5] | 1.656 ± 0.003 | 6.007 | 9.948 ± 0.046
